# Read-outs that look alike come from different tables or passages of the source.
# What was measured:
# PI3Kδ = target: T1, PI3Kδ (Homo sapiens, UniProt O00329); assay: Ambit Biosciences kinase competition binding assay, PI3Kδ
# T1 construct: purchased Ambit Biosciences (San Diego, Calif., USA); host or cells: T7 phage in BL21-derived E. coli, or HEK-293
# T1 sequence (O00329 1-1044): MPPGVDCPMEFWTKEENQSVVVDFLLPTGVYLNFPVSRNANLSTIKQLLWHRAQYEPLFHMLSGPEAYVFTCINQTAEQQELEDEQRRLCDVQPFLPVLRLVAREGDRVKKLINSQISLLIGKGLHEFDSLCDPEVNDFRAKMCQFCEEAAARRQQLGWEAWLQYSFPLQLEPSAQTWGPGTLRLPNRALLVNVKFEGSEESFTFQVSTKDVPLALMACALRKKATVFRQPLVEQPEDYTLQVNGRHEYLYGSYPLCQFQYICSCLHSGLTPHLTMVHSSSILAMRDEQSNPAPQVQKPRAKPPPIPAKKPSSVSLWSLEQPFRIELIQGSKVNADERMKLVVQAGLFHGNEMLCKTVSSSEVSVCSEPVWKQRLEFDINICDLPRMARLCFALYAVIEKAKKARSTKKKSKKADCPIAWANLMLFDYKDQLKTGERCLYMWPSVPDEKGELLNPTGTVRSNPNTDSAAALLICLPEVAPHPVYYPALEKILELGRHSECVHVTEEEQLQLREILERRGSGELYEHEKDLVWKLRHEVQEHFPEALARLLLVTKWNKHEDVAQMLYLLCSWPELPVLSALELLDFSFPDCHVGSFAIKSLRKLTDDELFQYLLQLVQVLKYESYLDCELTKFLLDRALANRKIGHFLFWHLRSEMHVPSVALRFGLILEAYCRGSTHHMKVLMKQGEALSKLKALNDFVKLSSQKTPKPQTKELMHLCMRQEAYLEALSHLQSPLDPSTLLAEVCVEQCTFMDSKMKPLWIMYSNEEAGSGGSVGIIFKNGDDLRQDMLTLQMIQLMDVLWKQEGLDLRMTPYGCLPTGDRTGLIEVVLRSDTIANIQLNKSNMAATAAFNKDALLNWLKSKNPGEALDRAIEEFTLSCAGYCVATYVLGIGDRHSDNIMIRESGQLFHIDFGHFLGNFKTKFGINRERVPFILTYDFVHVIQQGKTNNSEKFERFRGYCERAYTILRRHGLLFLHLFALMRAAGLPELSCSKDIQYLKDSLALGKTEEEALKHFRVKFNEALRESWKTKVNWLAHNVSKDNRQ
# Protocol: Kinase assays. For most assays, kinase-tagged T7 phage strains were grown in parallel in 24-well blocks in an E. coli host derived from the BL21 strain. E. coli were grown to log-phase and infected with T7 phage from a frozen stock (multiplicity of infection ˜0.1) and incubated with shaking at 32° C. until lysis (˜90 minutes). The lysates were centrifuged (6,000×g) and filtered ([…]) to remove cell debris. The remaining kinases were produced in HEK-293 cells and subsequently tagged with DNA for qPCR detection. […] The liganded beads were blocked with excess biotin and washed with blocking buffer (SeaBlock (Pierce), 1% BSA, 0.05% Tween 20, 1 mM DTT) to remove unbound ligand and to reduce non-specific phage binding. […] Test compounds were prepared as 40× stocks in 100% DMSO and directly diluted into the assay. All reactions were performed in polypropylene 384-well plates in a final volume of 0.04 ml. […] The kinase concentration in the eluates was measured by qPCR.
# Compounds were tested using the above assay at Ambit Biosciences (San Diego, Calif., USA).
# PI3Kγ = target: T2, PI3Kγ (Homo sapiens, UniProt P48736); assay: Ambit Biosciences kinase competition binding assay, PI3Kγ; conditions: read-out: inhibitory activity against other isoforms: PI3Kγ
# T2 construct: purchased Ambit Biosciences (San Diego, Calif., USA); host or cells: T7 phage in BL21-derived E. coli, or HEK-293
# Protocol: (§1) Assays were performed as described in Fabian et al. (2005) Nature Biotechnology, vol. 23, p. 329 and in Karaman et al. (2008) Nature Biotechnology, vol. 26, p. 127.
# (§2) Kinase assays. For most assays, kinase-tagged T7 phage strains were grown in parallel in 24-well blocks in an E. coli host derived from the BL21 strain. E. coli were grown to log-phase and infected with T7 phage from a frozen stock (multiplicity of infection ˜0.1) and incubated with shaking at 32° C. until lysis (˜90 minutes). The lysates were centrifuged (6,000×g) and filtered ([…]) to remove cell debris. The remaining kinases were produced in HEK-293 cells and subsequently tagged with DNA for qPCR detection. Streptavidin-coated magnetic beads were treated with biotinylated small molecule ligands for 30 minutes at room temperature to generate affinity resins for kinase assays. The liganded beads were blocked with excess biotin and washed with blocking buffer (SeaBlock (Pierce), 1% BSA, 0.05% Tween 20, 1 mM DTT) to remove unbound ligand and to reduce non-specific phage binding. Binding reactions were assembled by combining kinases, liganded affinity beads, and test compounds in 1× binding buffer (20% SeaBlock, 0.17× PBS, 0.05% Tween 20, 6 mM DTT). Test compounds were prepared as 40× stocks in 100% DMSO and directly diluted into the assay. […] The kinase concentration in the eluates was measured by qPCR. […]
# PI3Kβ = target: T3, PI3Kβ (Homo sapiens, UniProt P42338); assay: Ambit Biosciences kinase competition binding assay, PI3Kβ; conditions: read-out: inhibitory activity against other isoforms: PI3Kβ
# T3 construct: purchased Ambit Biosciences (San Diego, Calif., USA); host or cells: T7 phage in BL21-derived E. coli, or HEK-293
# Protocol: as §1, §2
# PI3Kα = target: T4, PI3Kα (Homo sapiens, UniProt P42336); assay: Ambit Biosciences kinase competition binding assay, PI3Kα; conditions: read-out: inhibitory activity against other isoforms: PI3Kα
# T4 construct: purchased Ambit Biosciences (San Diego, Calif., USA); host or cells: T7 phage in BL21-derived E. coli, or HEK-293
# Protocol: as §1, §2
# mTor = target: T5, mTor (Homo sapiens, UniProt P42345); assay: Z′-LYTE biochemical assay for mTor; conditions: at up to 1 μM
# T5 construct: purchased Invitrogen Corp. (Madison, Wis., USA)
# Protocol: The Z′-LYTE® biochemical assay for mTor The mTor kinase activity was assessed using the Z′-LYTE® biochemical assay of Invitrogen Corp. (Madison, Wis., USA).
# T4 sequence (P42336 whole entry, canonical isoform): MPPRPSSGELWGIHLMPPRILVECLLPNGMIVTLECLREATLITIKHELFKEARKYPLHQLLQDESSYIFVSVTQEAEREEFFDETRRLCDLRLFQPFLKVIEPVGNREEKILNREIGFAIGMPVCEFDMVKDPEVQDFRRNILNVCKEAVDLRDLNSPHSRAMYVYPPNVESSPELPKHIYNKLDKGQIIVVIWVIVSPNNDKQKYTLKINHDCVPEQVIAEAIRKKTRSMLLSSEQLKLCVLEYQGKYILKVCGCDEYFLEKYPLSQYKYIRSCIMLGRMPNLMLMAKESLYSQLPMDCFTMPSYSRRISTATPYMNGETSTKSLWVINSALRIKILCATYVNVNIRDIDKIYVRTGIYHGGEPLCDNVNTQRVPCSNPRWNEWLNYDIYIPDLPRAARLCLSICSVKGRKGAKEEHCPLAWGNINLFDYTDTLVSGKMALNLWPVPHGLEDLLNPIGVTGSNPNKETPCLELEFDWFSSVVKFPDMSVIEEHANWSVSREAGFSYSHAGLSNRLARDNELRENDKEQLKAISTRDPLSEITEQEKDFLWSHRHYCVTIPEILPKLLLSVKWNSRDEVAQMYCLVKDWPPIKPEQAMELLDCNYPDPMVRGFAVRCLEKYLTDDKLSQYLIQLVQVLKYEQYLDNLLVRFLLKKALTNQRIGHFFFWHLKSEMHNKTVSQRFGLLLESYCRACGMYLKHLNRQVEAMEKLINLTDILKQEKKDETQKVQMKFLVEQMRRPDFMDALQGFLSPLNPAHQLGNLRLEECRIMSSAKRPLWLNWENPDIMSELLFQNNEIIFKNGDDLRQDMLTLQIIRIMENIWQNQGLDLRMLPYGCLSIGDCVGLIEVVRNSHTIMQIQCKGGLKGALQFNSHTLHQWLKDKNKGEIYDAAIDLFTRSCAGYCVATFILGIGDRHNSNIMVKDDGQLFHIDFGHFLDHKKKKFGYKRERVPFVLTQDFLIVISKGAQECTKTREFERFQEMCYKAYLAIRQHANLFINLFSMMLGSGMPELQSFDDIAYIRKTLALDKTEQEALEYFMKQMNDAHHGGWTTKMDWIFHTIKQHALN
# T2 sequence (P48736 whole entry, canonical isoform): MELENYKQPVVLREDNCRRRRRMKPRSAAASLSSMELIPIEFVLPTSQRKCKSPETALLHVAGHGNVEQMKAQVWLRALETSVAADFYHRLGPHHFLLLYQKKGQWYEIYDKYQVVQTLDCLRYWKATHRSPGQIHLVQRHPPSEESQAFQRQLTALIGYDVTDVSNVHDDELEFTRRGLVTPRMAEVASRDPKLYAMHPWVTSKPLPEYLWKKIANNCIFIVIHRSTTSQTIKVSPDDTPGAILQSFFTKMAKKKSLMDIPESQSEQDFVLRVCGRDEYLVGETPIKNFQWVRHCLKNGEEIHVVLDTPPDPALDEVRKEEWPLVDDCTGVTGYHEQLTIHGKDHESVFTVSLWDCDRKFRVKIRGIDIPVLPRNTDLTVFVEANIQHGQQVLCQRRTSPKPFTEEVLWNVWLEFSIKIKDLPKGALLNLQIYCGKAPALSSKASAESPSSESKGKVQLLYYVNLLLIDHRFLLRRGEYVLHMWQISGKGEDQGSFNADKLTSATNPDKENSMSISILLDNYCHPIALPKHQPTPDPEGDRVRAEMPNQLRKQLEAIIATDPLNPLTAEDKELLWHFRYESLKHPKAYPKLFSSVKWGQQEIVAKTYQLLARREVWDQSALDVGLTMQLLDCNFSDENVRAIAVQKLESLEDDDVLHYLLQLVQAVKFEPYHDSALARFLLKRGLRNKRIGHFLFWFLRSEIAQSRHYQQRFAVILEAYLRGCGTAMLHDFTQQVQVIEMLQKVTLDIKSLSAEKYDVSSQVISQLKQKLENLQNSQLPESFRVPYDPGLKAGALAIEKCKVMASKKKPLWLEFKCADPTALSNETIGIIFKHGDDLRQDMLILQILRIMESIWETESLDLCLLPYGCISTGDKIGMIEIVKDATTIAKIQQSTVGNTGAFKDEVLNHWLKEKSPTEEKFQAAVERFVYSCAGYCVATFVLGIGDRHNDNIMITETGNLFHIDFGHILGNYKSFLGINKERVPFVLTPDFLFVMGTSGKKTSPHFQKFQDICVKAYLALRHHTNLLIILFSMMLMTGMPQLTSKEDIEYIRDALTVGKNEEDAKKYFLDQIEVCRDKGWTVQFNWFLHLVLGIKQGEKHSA
# T3 sequence (P42338 whole entry, canonical isoform): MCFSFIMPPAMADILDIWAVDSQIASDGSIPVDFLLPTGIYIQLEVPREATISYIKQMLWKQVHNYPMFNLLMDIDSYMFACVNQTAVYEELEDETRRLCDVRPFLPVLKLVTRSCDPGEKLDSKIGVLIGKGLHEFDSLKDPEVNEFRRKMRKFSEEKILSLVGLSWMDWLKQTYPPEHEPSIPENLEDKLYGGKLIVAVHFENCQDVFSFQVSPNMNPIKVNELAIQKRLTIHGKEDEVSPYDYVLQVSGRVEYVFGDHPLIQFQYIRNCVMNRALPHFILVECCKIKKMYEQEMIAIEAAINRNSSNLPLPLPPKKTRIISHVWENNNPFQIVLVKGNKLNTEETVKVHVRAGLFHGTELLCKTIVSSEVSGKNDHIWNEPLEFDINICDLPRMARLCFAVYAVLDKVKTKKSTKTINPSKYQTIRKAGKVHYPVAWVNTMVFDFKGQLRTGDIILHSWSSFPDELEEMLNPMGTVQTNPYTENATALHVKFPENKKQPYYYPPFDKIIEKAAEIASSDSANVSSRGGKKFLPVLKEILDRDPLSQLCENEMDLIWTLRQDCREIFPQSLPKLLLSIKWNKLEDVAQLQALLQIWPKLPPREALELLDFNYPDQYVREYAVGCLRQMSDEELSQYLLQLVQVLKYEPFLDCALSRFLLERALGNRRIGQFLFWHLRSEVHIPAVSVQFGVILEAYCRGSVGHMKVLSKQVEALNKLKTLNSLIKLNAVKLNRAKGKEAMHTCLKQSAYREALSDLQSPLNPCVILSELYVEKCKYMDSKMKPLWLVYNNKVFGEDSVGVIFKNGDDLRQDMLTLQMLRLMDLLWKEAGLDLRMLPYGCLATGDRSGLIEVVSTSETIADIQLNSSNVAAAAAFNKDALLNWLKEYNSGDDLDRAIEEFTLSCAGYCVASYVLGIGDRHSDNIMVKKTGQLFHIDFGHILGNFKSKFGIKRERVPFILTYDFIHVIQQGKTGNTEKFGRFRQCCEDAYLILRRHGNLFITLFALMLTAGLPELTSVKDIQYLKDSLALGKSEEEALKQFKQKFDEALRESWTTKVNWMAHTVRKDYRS
IC50 (PI3Kδ; read-out: inhibition against PI3Kδ (IC50)),SMILES,IC50 (PI3Kγ),IC50 (PI3Kβ),IC50 (PI3Kα),IC50 (PI3Kδ),mTor kinase inhibition (mTor)
< 30 nM,"CS(=O)(=O)N1CCN(CCn2cnc3c(-n4c(C(F)F)nc5ccccc54)nc(N4CCOCC4)nc32)CC1 [Example 14, 6-(2-difluoromethyl-benzoimidazol-1-yl)-9-[2-(4-methanesulfonyl-piperazin-1-yl)-ethyl]-2-morpholin-4-yl-9H-purine]",> 100 nM,> 100 nM,> 100 nM,–,–
–,"OCCn1cnc2c(-n3c(C(F)F)nc4ccccc43)nc(N3CCOCC3)nc21 [Example 28, 2-{6-[2-(difluoromethyl)benzimidazol-1-yl]-2-morpholin-4-ylpurin-9-yl}ethan-1-ol]",> 100 nM,> 100 nM,> 100 nM,< 30 nM,did not significantly inhibit
